Experiments:
Assay in all cases: Test for adequate preservation (European Pharmacopea), 1,2-diols and 1,2-diol mixtures in O/W emulsion
Assay type in all cases: cell-based
[1] = system: Aspergillus niger ATCC 16404; settings: for germ count A. niger: 3% diol(s) in O/W emulsion; for reduction in the number of colony forming units (CFU) to the 0 value: Aspergillus niger, dosage of 3%, 28 days
Method: A test for adequate preservation was carried out in accordance with the European Pharmacopea. The test thus consists of the contamination of the formulation, if possible in its final ratio, with a prescribed inoculum of suitable microorganisms, storage of the inoculated formulation at a specific temperature, taking of samples from the vessel at specific intervals and determination of the number of microorganisms in the samples taken in this way. The preserving properties are adequate if, under the conditions of the test, there is a distinct reduction or optionally no increase in the germ count in the inoculated formulations after the prescribed times at the prescribed temperatures. Experimental details of the test procedure are described in the European Pharmacopea (ISBN 3-7692-2768-9; 2001 supplement to the 3rd Edition, page 421-422, chapter 5.1.3). The initial germ count (CFU/g; “0” value) was in the range of 240,000 to 300,000 in the various test series. For the tests for adequate preservation, (a) potentially synergistically active mixtures taken into account and (b), for comparison purposes, the corresponding unmixed 1,2-diols were incorporated in O/W emulsions. […] The variation in the total concentration of 1,2-diols or 1,2-diol mixtures in the O/W emulsions was compensated for by increasing or reducing the water content, so that otherwise identical formulations always comprised 100 parts by weight in total. […] The Kull equation enables the pure substances and the active compound mixtures prepared therefrom to be compared in respect of their antimicrobial activity. With this equation the so-called synergy index (SI), which is a measure for a synergistic activity, but also for a possible antagonistic activity, of a mixture having an antimicrobial action, is determined. A synergistic effect is evident if the SI value determined is less than 1. On the other hand, if an SI of precisely 1 is calculated, there is a pure additive effect of two substances having an antimicrobial action. In the case of an SI value greater than 1, on the other hand, there is a (frequently undesired) antagonistic effect.

[2] = system: Escherichia coli ATCC 8739; settings: 3% diol(s) in O/W emulsion
Method: (§1) A test for adequate preservation was carried out in accordance with the European Pharmacopea. The test thus consists of the contamination of the formulation, if possible in its final ratio, with a prescribed inoculum of suitable microorganisms, storage of the inoculated formulation at a specific temperature, taking of samples from the vessel at specific intervals and determination of the number of microorganisms in the samples taken in this way. The preserving properties are adequate if, under the conditions of the test, there is a distinct reduction or optionally no increase in the germ count in the inoculated formulations after the prescribed times at the prescribed temperatures. Experimental details of the test procedure are described in the European Pharmacopea (ISBN 3-7692-2768-9; 2001 supplement to the 3rd Edition, page 421-422, chapter 5.1.3). The initial germ count (CFU/g; “0” value) was in the range of 240,000 to 300,000 in the various test series. For the tests for adequate preservation, (a) potentially synergistically active mixtures taken into account and (b), for comparison purposes, the corresponding unmixed 1,2-diols were incorporated in O/W emulsions. […] The variation in the total concentration of 1,2-diols or 1,2-diol mixtures in the O/W emulsions was compensated for by increasing or reducing the water content, so that otherwise identical formulations always comprised 100 parts by weight in total.

[3] = system: Staphylococcus aureus ATCC 6538; settings: 3% diol(s) in O/W emulsion
Method: as §1

[4] = system: Candida albicans ATCC 10231; settings: 3% diol(s) in O/W emulsion
Method: as §1

[5] = system: Pseudomonas aeruginosa ATCC 9027; settings: 3% diol(s) in O/W emulsion
Method: as §1

SMILES | germ count A. niger ([1]; 0′-count (initial germ count)) | germ count A. niger ([1]; 24 h) | germ count A. niger ([1]; 48 h) | germ count A. niger ([1]; 4 d) | germ count A. niger ([1]; 7 d) | germ count A. niger ([1]; 14 d) | germ count A. niger ([1]; 28 d) | reduction in the number of colony forming units (CFU) to the 0 value [1] | germ count E. coli ([2]; 0′-count (initial germ count)) | germ count E. coli ([2]; 24 h) | germ count E. coli ([2]; 48 h) | germ count E. coli ([2]; 4 d) | germ count E. coli ([2]; 7 d) | germ count E. coli ([2]; 14 d) [CFU/ml] | germ count E. coli ([2]; 28 d) [CFU/ml] | germ count Staph. aureus ([3]; 0′-count (initial germ count)) | germ count Staph. aureus ([3]; 24 h) | germ count Staph. aureus ([3]; 48 h) | germ count Staph. aureus ([3]; 7 d) [CFU/ml] | germ count Staph. aureus ([3]; 14 d) [CFU/ml] | also measured
CCCC(O)CO (centres unmarked) [PE3, 1,2-pentanediol] | 260,000 CFU/ml | 180,000 CFU/ml | 180,000 CFU/ml | 180,000 CFU/ml | 140,000 CFU/ml | 140,000 CFU/ml | 100,000 CFU/ml | did not enable a reduction in the number of colony forming units (CFU) to the desired 0 value | 300,000 CFU/ml | 300,000 CFU/ml | 145,000 CFU/ml | 100,000 CFU/ml | 40,000 CFU/ml | 500 | 0 | 240,000 CFU/ml | 100,000 CFU/ml | 12,000 CFU/ml | 0 | 0 | germ count Staph. aureus ([3]; 28 d): 0 CFU/ml; germ count C. albicans ([4]; 0′-count (initial germ count)): 250,000 CFU/ml; germ count C. albicans ([4]; 24 h): 245,000 CFU/ml; germ count C. albicans ([4]; 48 h): 73,000 CFU/ml; germ count C. albicans ([4]; 4 d): 28,000 CFU/ml; germ count C. albicans ([4]; 7 d): 23,000 CFU/ml; germ count C. albicans ([4]; 14 d): <100 CFU/ml; germ count C. albicans ([4]; 28 d): 0 CFU/ml; germ count Ps. aeruginosa ([5]; 0′-count (initial germ count)): 290,000 CFU/ml; germ count Ps. aeruginosa ([5]; 24 h): 145,000 CFU/ml; germ count Ps. aeruginosa ([5]; 48 h): 12,000 CFU/ml; germ count Ps. aeruginosa ([5]; 4 d): 0 CFU/ml; germ count Ps. aeruginosa ([5]; 7 d): 0 CFU/ml; germ count Ps. aeruginosa ([5]; 14 d): 0 CFU/ml; germ count Ps. aeruginosa ([5]; 28 d): 0 CFU/ml
CCCCCCCCC(O)CO (centres unmarked) [DE 3, 1,2-decanediol] | 250,000 CFU/ml | 73,000 CFU/ml | 160,000 CFU/ml | 100,000 CFU/ml | 100,000 CFU/ml | 73,000 CFU/ml | 73,000 CFU/ml | did not enable a reduction in the number of colony forming units (CFU) to the desired 0 value | 350,00 CFU/ml | 0 CFU/ml | 0 CFU/ml | 0 CFU/ml | 0 CFU/ml | 0 | 0 | 350,000 CFU/ml | 3,200 CFU/ml | 0 CFU/ml | 0 | 0 | germ count Staph. aureus ([3]; 28 d): 0 CFU/ml; germ count C. albicans ([4]; 0′-count (initial germ count)): 320,000 CFU/ml; germ count C. albicans ([4]; 24 h): 3,500 CFU/ml; germ count C. albicans ([4]; 48 h): 0 CFU/ml; germ count C. albicans ([4]; 4 d): 0 CFU/ml; germ count C. albicans ([4]; 7 d): 0 CFU/ml; germ count C. albicans ([4]; 14 d): 0 CFU/ml; germ count C. albicans ([4]; 28 d): 0 CFU/ml; germ count Ps. aeruginosa ([5]; 0′-count (initial germ count)): 360,000 CFU/ml; germ count Ps. aeruginosa ([5]; 24 h): 2,600 CFU/ml; germ count Ps. aeruginosa ([5]; 7 d): 20.0 mill; germ count Ps. aeruginosa ([5]; 14 d): 15.0 mill; germ count Ps. aeruginosa ([5]; 28 d): 11.8 mill
